The values that follow are results of earlier work, collected in PMC13231908, “Evaluating acridones as novel therapeutics for human babesiosis” (Antimicrobial Agents and Chemotherapy, 2026).

For the series the following is noted: mouse, in vivo, po, 80 mg/kg.

For `O=c1c2ccc(Oc3ccc(OC(F)(F)F)cc3)cc2[nH]c2cc(Cl)cc(F)c12` [T111], the AUCinf is […]. Take `O=c1c2cc(F)c(Oc3ccc(OC(F)(F)F)cc3)cc2[nH]c2cc(Cl)cc(F)c12` [T226]: the AUCinf was 95.7 ng·h/mL and the AUClast is 33.9 ng·h/mL.
